Measurements: patent publication US20110160121A1, “UNACYLATED GHRELIN AND ANALOGS AS THERAPEUTIC AGENTS FOR VASCULAR REMODELING IN DIABETIC PATIENTS AND TREATMENT OF CARDIOVASCULAR DISEASE” (ALIZE PHARMA SAS, priority 2008, published 2011)
Where no end group is shown, it is not given here.

Experiments:
CAC [1] = experiment: CAC senescence (acidic beta-gal / SA-beta-gal activity) in cultured CAC; type: cell-based, human; details: FIG. 2A
Description: To this end, the effect of AGE treatment, alone or in combination with UAG, was first evaluated on SA-β-gal activity. […] In addition, AGE-induced p53 accumulation and senescent like-growth arrest were prevented by silencing p53 (FIG. 2C).
CAC Senescence—Senescence was evaluated by acidic β-gal activity on CAC recovered from normal subjects cultured in EGM2 medium for 4 days with UAG or AGE+UAG and saline- or UAG-treated diabetic patients (Ref. 22). Briefly, CAC were washed in phosphate-buffered saline, fixed for 3 min at room temperature in 2% paraformaldehyde, washed, and incubated for 24 h at 37° C. with fresh SA-β-gal stain solution: 1 mg/ml 5-bromo-4-chloro-3-indolyl β-D-galactopyranoside (X-gal), 5 mM/liter potassium ferrocyanide, 5 mM/liter ferricyanide, 150 mM/liter NaCl, 2 mM/liter MgCl2, 0.01% sodium deoxycholate, and 0.02% Nonidet P-40. SA-β-gal-positive cells were counted manually by 3 independent investigators.

CAC [2] = experiment: CAC mobilization assay in healthy subjects and diabetic patients; type: in vivo, human; details: diabetic patients compared to normal subjects, treated for 6 hours; FIG. 3B
Description: This observation led to investigate the effect of UAG treatment on BM CAC mobilization. To this end, normal subject and diabetic patients were treated with UAG or saline for 6 hours. After treatment, CAC were recovered from 4 control subjects and 4 diabetic patients, analyzed by FACS analysis and counted. […] Black lines refer to preimmune IgG used as negative control and grey lines refer to surface marker expression. Similar results were obtained when CAC from untreated diabetic patients or untreated or treated healthy subjects were analyzed (data not shown).
All the subjects underwent the following testing session: • UAG (3.0 μg/kg/h iv. as infusion for 12 h from 0 to 12 hours); • isotonic saline (infusion from 0 to 12 hours).
Mobilization assay—CAC recovered from healthy subjects and diabetic patients, treated with UAG or saline for 6 h and 12 h, were evaluated. Total number of MNC was counted by 3 independent investigators. The percentage of CAC was calculated by comparing CAC obtained from diabetic patients and healthy donors, treated for 6 h and 12 h with UAG, AG or saline, to CAC recovered at time 0.

CAC [3] = experiment: CAC mobilization assay in diabetic mice (NOD/SCID, ob/ob); type: in vivo, mouse; details: FIG. 4B
Description: To further confirm data obtained by treating patients and healthy controls with UAG, two different mouse models of diabetes were used. NOD/SCID mice and ob/ob mice were treated for different time intervals with saline or UAG. The person skilled in the art will be familiar with the NOD/SCID mice and ob/ob mice models.
After treatment, cells were recovered, assayed by FACS analysis, counted and cultured. […] Black lines refer to preimmune IgG used as negative control and grey lines refer to surface marker expression. Similar results were obtained when CAC from untreated diabetic mice as well as untreated or treated wild-type mice were analyzed (data not shown).
Diabetic and control mice—Mice were divided in four groups. The plasma glucose and insulin determination for each group are reported. Sixteen 6 weeks old ob/ob mice (blood glucose, 600±45 mg/dL, insulin, 5.5±0.9 ng/ml); sixteen C56BL6/J wild type mice (blood glucose, 150±18.2 mg/dL, insulin, 1±0.05 ng/ml); ten 7 weeks old NOD/SCID mice (blood glucose, 164±12.9 mg/dL, insulin 1.2±.0.12 ng/ml); ten 17 weeks old NOD/SCID mice (blood glucose, 536±36.3 mg/dL, insulin 4.85±0.74 ng/ml). Animal procedures conformed to the Guide for Care and Use of […] (National Institutes of Health publication no. […], revised 1985).
Mobilization assay—Mice were treated for 12 hours with UAG or saline. CAC recovered and purified as above described, were put in culture and counted by three independent investigators. The technical ratio of CAC was calculated by comparing the numbers of CAC/μL of blood drawn from left ventricular.

CAC [4] = experiment: Matrigel-plug assay: de novo vessel formation by CAC from diabetic patients in SCID mice; type: in vivo, human
Description: To evaluate whether CAC recovered from UAG-treated diabetic patients rescue their vasculogenic capability, de novo vessel formation was assayed in vivo. To this end, Matrigel plugs containing IL-3 and CSFE-labelled CAC, recovered from untreated or UAG-treated patients, were injected into SCID mice, 15 days after injection Matrigel plugs were recovered and analyzed by immunohistochemistry. […] On the contrary no functional vessels could be detected when CAC recovered from untreated patients were used (FIG. 4E, panel a (left)). To exclude the possibility that the neo-vessels derived from vasculogenic cells of host origin, immunofluorescence assay was performed using the anti-human HLA Class I and the anti-mouse MHC II antibodies.
Matrigel-plug assay—For murine angiogenesis assay, untreated or UAG-treated CAC, obtained from type 2 diabetic patients, were counted and resuspended in DMEM (4×10^6 in 250 μL DMEM). […]
Immunohistochemistry and immunofluorescence—For immunohistochemistry, sections from paraffin-embedded blocks of Matrigel plugs were collected onto poly-lysine-coated slides. […] The percentage of positive cells was counted in 4 non-sequential sections for each experiment at ×40 magnification. […] The number of MHC II or HLA I positive vessels was determined by counting 10 randomly selected fields in three different samples.

## 1-NH2Gly-Ser-Ser-Phe-Leu-Ser-Pro-Glu-His-Gln-Arg-Val-Gln-Gln-Arg-Lys-Glu-Ser-Lys-Lys-Pro-Pro-Ala-Lys-Leu-Gln-Pro-Arg-28 (H-GSSFLSPEHQRVQQRKESKKPPAKLQPR; ends and bridges not checked; listed as Homo sapiens) [UAG]
CAC [1]; UAG added to AGE-cultured CAC
  number of SA-beta-gal positive cells: significant reduction in the number of SA-β-gal positive cells
CAC [1]; cultured CAC, UAG alone
  number of senescent cells (SA-beta-gal activity): reduce the number of senescent cells
CAC [2]
  number of recovered cells (CAC): strong increase in the number of recovered cells
CAC [3]; UAG-treated ob/ob mice vs untreated wild type mice
  number of CAC relative to untreated wild type mice: fully restores the number of CAC to normal physiological levels
CAC [3]; diabetic NOD/SCID mice
  percentage of recovered cells (CAC): increase the percentage of recovered cells
CAC [3]; ob/ob mice
  number of circulating CAC: increased number of circulating CAC
CAC [4]; CSFE-labelled CAC from UAG-treated diabetic patients, Matrigel plugs with IL-3 in SCID mice, 15 days, FIG. 4E
  de novo formation of functional vessels: formed functional vessels
CAC [4]; Matrigel plugs, immunofluorescence, FIG. 4F
  origin of vessels (human HLA Class I vs mouse MHC II): majority of vessels are lined by human HLA Class I positive cells
